We go through one compound from US20120180807A1, “Method for Chemically Modifying the Internal Region of a Hair Shaft” (priority 2011, published 2012).

This data set is described as follows: Water solubility / dissolving of monomer and polymer (other in-vitro-experiments). In kind it is physicochemical. From the text:
However, dissolving polymer, once it had been dried, takes considerably longer (some hours) than dissolving dry monomer (some seconds). […] All the 20 hair fibres of each sample without H2O2 pre-treatment lost their radioactivity of the cuticle area by washing, whereas all the other samples kept it.

For `C=CC(=O)OCCCS(=O)(=O)O` [3-SPA, 3-sulfopropylacrylate], the water solubility entry is recorded as “water soluble”. Moreover, the “time for dissolving in water” value (dry / once dried material) was “some seconds”.
